What was measured:
[1] = system: H3N2 (A/Brisbane/10/2007); format: cell-based
[2] = system: H1N1 (A/CA/07/2009); format: cell-based
[3] = system: H1N1 (A/SolomonIslands/3/2006); format: cell-based; conditions: read-out: A/Solomon-Islands/3/2006 (EC50)
[4] = target: NP (nucleoprotein, A/WSN/33) (Influenza A virus, UniProt P15682)
[5] = system: A/WSN/33; format: cell-based
[6] = target: Influenza A nucleoprotein (NP) (Influenza A virus (A/WSN/33, H1N1), UniProt P15682 P15682:8-498); assay: SPR; conditions: tags: N-terminal hexahistidine (pET28A), expressed in E. coli Rosetta II (DE3); label: 5'-biotin

Row | Molecule | EC50 [1] [nM] | EC50 [2] [nM] | EC50 [3] [nM] | % Pd (polydispersity) [4] [%] | Rh (nm), hydrodynamic radius [4] [nm] | EC50 [5] [nM] | Kd [6] [nM]
1 | COc1ccccc1-c1noc(C)c1C(=O)N1CCN(c2ccc([N+](=O)[O-])cc2Cl)CC1 [Compound B] | 7310 ± 1800 | > 20000 | 660 ± 220 | 10.2 | 8.2 ± 0.3 |  | 
2 | Cc1cc(Br)cnc1N1CCN(C(=O)c2c(-c3ccccc3Cl)noc2C)CC1 [Compound D] | > 20000 | > 20000 | 2800 ± 530 | 13.5 | 8.9 ± 0.2 | 1020 ± 1800 | 
3 | biotinylated 2'-O-methylated RNA oligonucleotide (ssRNA, 2'-OMe (stated as 2-O-methylated, positions not specified)) RNA: UAGAAACAAGGGUGUUUUUUCAGAUCUAUUAAACUUCACCCUGCUUUUGCU |  |  |  |  |  |  | 11.2

Source: US20140011700A1 (Bristol-Myers Squibb Company, published 2014)
